# Experimental data published in patent US10646488B2 (Araxes Pharma LLC, priority 2016, dated 2020).
# Molecular target: T1, KRAS G12C 1-169, his-tagged protein, GDP-loaded (Homo sapiens, UniProt P01116, G12C)
# T1 construct: KRAS G12C 1-169, his-tagged protein, GDP-loaded
# Test: Covalent binding (% modification) to KRAS G12C by mass spectrometry; further: test concentration or dose not given here
# Details: covalent binding to KRAS G12C after a ten minute incubation period
row,Compound,Binding %
1,"C=CC(=O)N1C[C@@H](C)N(c2nc(N)nc3c(F)c(-c4c(C)ccc5cn[nH]c45)c(Cl)cc23)[C@@H](C)C1 [Compound 31, 1-((3S,5R)-4-(2-amino-6-chloro-8-fluoro-7-(6-methyl-1H-indazol-7-yl)quinazolin-4-yl)-3,5-dimethyl-piperazin-1-yl) prop-2-en-1-one]",++ (++ indicates binding activity from 50 to 90%)
2,"C=CC(=O)N1C[C@H](C)N(c2nc(N3CC(N(C)C)C3)nc3c(F)c(-c4c(O)cccc4F)c(Cl)cc23)C[C@H]1C [Compound 24, 1-((2R,5S)-4-(6-chloro-2-(3-(dimethylamino)azetidin-1-yl)-8-fluoro-7-(2-fluoro-6-hydroxyphenyl)quinazolin-4-yl)-2,5-dimethyl-piperazin-1-yl) prop-2-en-1-one]",++ (++ indicates binding activity from 50 to 90%)
3,"C=CC(=O)N1C[C@@H](C)N(c2nc(N3CC(N(C)C)C3)nc3c(F)c(-c4c(O)cccc4F)c(Cl)cc23)C[C@H]1C [Compound 80, 1-((2R,5R)-4-(6-chloro-2-(3-(dimethylamino)azetidin-1-yl)-8-fluoro-7-(2-fluoro-6-hydroxyphenyl)quinazolin-4-yl)-2,5-dimethyl-piperazin-1-yl) prop-2-en-1-one]",+ (+ indicates binding activity up to 50%)
4,"C=CC(=O)N1CCN(c2nc(N)nc3c(F)c(-c4c(O)cccc4F)c(Cl)cc23)C[C@@H]1C [Compound 3, 1-((2S)-4-(2-amino-6-chloro-8-fluoro-7-(2-fluoro-6-hydroxyphenyl)quinazolin-4-yl)-2-methylpiperazin-1-yl)prop-2-en-1-one]",++ (++ indicates binding activity from 50 to 90%)
5,"C=CC(=O)N1CCN(c2nc(OCCN3CC(F)(F)C3)nc3c(F)c(-c4c(O)cccc4F)c(Cl)cc23)C[C@H]1C (atropisomer, axis not shown) [Compound 62, 1-((R)-4-((R)-6-chloro-2-(2-(3,3-difluoroazetidin-1-yl)ethoxy)-8-fluoro-7-(2-fluoro-6-hydroxyphenyl)quinazolin-4-yl)-2-methyl-piperazin-1-yl) prop-2-en-1-one]",+ (+ indicates binding activity up to 50%)
6,"C=CC(=O)N1[C@H](C)CN(c2nc(OCCN(CC)CC)nc3c(F)c(-c4c(C)ccc5cn[nH]c45)c(Cl)cc23)C[C@@H]1C [Compound 23, 1-((2R,6S)-4-(6-chloro-2-(2-(diethylamino)ethoxy)-8-fluoro-7-(6-methyl-1H-indazol-7-yl)quinazolin-4-yl)-2,6-dimethyl-piperazin-1-yl) prop-2-en-1-one]",++ (++ indicates binding activity from 50 to 90%)
7,"C=CC(=O)N1CCN(c2nc(NC3CCN(C4CC4)CC3)nc3c(F)c(-c4c(C)ccc5[nH]ncc45)c(Cl)cc23)[C@@H](C)C1 (atropisomer, axis not shown) [Compound 13, 1-((S)-4-(6-chloro-2-(1-cyclopropyl-piperidin-4-ylamino)-8-fluoro-7-((R)-5-methyl-1H-indazol-4-yl)quinazolin-4-yl)-3-methyl-piperazin-1-yl) prop-2-en-1-one]",+++ (+++ indicates binding activity greater than 90%)
8,"C=CC(=O)N1C[C@H](C)N(c2nc(NC3CCN(C4CC4)CC3)nc3c(F)c(-c4c(C)ccc5[nH]ncc45)c(Cl)cc23)C[C@H]1C [Compound 50, 1-((2R,5S)-4-(6-chloro-2-((1-cyclopropyl-piperidin-4-yl)amino)-8-fluoro-7-(5-methyl-1H-indazol-4-yl)quinazolin-4-yl)-2,5-dimethyl-piperazin-1-yl) prop-2-en-1-one]",++ (++ indicates binding activity from 50 to 90%)
9,"C=CC(=O)N1[C@H](C)CN(c2nc(OCCN(CC)CC)nc3c(F)c(-c4c(C)ccc5[nH]ncc45)c(Cl)cc23)C[C@@H]1C [Compound 46, 1-((2R,6S)-4-(6-Chloro-2-(2-(Diethylamino)Ethoxy)-8-Fluoro-7-(5-Methyl-1H-Indazol-4-Yl)Quinazolin-4-Yl)-2,6-Dimethylpiperazin-1-Yl)Prop-2-En-1-One]",++ (++ indicates binding activity from 50 to 90%)
10,"C=CC(=O)N1CCN(c2nc(N)nc3c(F)c(-c4c(O)cccc4F)c(Cl)cc23)[C@@H](C)C1 [Compound 4, 1-((3S)-4-(2-amino-6-chloro-8-fluoro-7-(2-fluoro-6-hydroxyphenyl)quinazolin-4-yl)-3-methylpiperazin-1-yl)prop-2-en-1-one]",++ (++ indicates binding activity from 50 to 90%)
11,"C=CC(=O)N1[C@H](C)CN(c2nc(N3CC(O)C3)nc3c(F)c(-c4c(O)cccc4F)c(Cl)cc23)C[C@@H]1C [Compound 35, 1-((2R,6S)-4-(6-chloro-8-fluoro-7-(2-fluoro-6-hydroxyphenyl)-2-(3-hydroxy-azetidin-1-yl)quinazolin-4-yl)-2,6-dimethyl-piperazin-1-yl) prop-2-en-1-one]",++ (++ indicates binding activity from 50 to 90%)

# Same assay, conditions: covalent binding to KRAS G12C after a three minute incubation period
row,Compound,Binding %
1,"C=CC(=O)N1C[C@H](C)N(c2nc(COCc3ncccc3F)nc3c(F)c(-c4c(C)ccc5[nH]ncc45)c(Cl)cc23)C[C@H]1C [Compound 142, 1-((2R,5S)-4-(6-chloro-8-fluoro-2-(((3-fluoro-pyridin-2-yl)methoxy)methyl)-7-(5-methyl-1H-indazol-4-yl)quinazolin-4-yl)-2,5-dimethyl-piperazin-1-yl) prop-2-en-1-one]",++ (++ indicates binding activity from 50 to 90%)
2,"C=CC(=O)N1C[C@H](C)N(c2nc(Oc3ccnn3C)nc3c(F)c(-c4cc(O)cc5ccccc45)c(Cl)cc23)C[C@H]1C [Compound 205, 1-((2R,5S)-4-(6-chloro-8-fluoro-7-(3-hydroxy-naphthalen-1-yl)-2-((1-methyl-1H-pyrazol-5-yl)oxy)quinazolin-4-yl)-2,5-dimethyl-piperazin-1-yl) prop-2-en-1-one]",++ (++ indicates binding activity from 50 to 90%)
3,"C=CC(=O)N1CCN(c2nc(N3CC(C)(N(C)C)C3)nc3c(F)c(-c4c(C)ccc5[nH]ncc45)c(Cl)cc23)[C@@H](C)C1 [Compound 150, 1-((3S)-4-(6-chloro-2-(3-(dimethylamino)-3-methylazetidin-1-yl)-8-fluoro-7-(5-methyl-1H-indazol-4-yl)quinazolin-4-yl)-3-methyl-piperazin-1-yl) prop-2-en-1-one]",+++ (+++ indicates binding activity greater than 90%)
4,"C=CC(=O)N1C[C@H](C)N(c2nc(OCCn3ccnc3)nc3c(F)c(-c4c(O)cccc4F)c(Cl)cc23)C[C@H]1C [Compound 232, 1-((2R,5S)-4-(2-(2-(1H-imidazol-1-yl)ethoxy)-6-chloro-8-fluoro-7-(2-fluoro-6-hydroxyphenyl)quinazolin-4-yl)-2,5-dimethyl-piperazin-1-yl) prop-2-en-1-one]",++ (++ indicates binding activity from 50 to 90%)
5,"C=CC(=O)N1C[C@H](C)N(c2nc(OCCCN(C)C)nc3c(F)c(-c4c(C)ccc5[nH]ncc45)c(Cl)cc23)C[C@H]1C [Compound 199, 1-((2R,5S)-4-(6-chloro-2-(3-(dimethylamino)propoxy)-8-fluoro-7-(5-methyl-1H-indazol-4-yl)quinazolin-4-yl)-2,5-dimethyl-piperazin-1-yl) prop-2-en-1-one]",++ (++ indicates binding activity from 50 to 90%)
6,"C=CC(=O)N1C[C@H](C)N(c2nc(N3CC(N(CC)CC)C3)nc3c(F)c(-c4c(O)cccc4F)c(Cl)cc23)C[C@H]1C [Compound 126, 1-((2R,5S)-4-(6-chloro-2-(3-(diethylamino)azetidin-1-yl)-8-fluoro-7-(2-fluoro-6-hydroxyphenyl)quinazolin-4-yl)-2,5-dimethyl-piperazin-1-yl) prop-2-en-1-one]",+++ (+++ indicates binding activity greater than 90%)
7,"C=CC(=O)N1C[C@H](C)N(c2nc(N3CC(N(C)C4CCC4)C3)nc3c(F)c(-c4c(C)ccc5cn[nH]c45)c(Cl)cc23)C[C@H]1C [Compound 144, 1-((2R,5S)-4-(6-chloro-2-(3-(cyclobutyl (methyl)amino)azetidin-1-yl)-8-fluoro-7-(6-methyl-1H-indazol-7-yl)quinazolin-4-yl)-2,5-dimethyl-piperazin-1-yl) prop-2-en-1-one]",+++ (+++ indicates binding activity greater than 90%)
8,"C=CC(=O)N1C[C@H](C)N(c2nc(N3CC(N(C)CC)C3)nc3c(F)c(-c4c(O)cccc4F)c(Cl)cc23)C[C@H]1C (atropisomer, axis not shown) [Compound 154, 1-((2R,5S)-4-(6-chloro-2-(3-(ethyl(methyl)amino)azetidin-1-yl)-8-fluoro-7-((S)-2-fluoro-6-hydroxyphenyl)quinazolin-4-yl)-2,5-dimethyl-piperazin-1-yl) prop-2-en-1-one]",+++ (+++ indicates binding activity greater than 90%)
9,"C=CC(=O)N1C[C@H](C)N(c2nc(N3CC(N(C)C(C)C)C3)nc3c(F)c(-c4c(O)cccc4F)c(Cl)cc23)C[C@H]1C [Compound 99, 1-((2R,5S)-4-(6-chloro-8-fluoro-7-(2-fluoro-6-hydroxyphenyl)-2-(3-(isopropyl (methyl)amino)azetidin-1-yl)quinazolin-4-yl)-2,5-dimethyl-piperazin-1-yl) prop-2-en-1-one]",++ (++ indicates binding activity from 50 to 90%)
10,"C=CC(=O)N1C[C@H](C)N(c2nc(N3CC4(CCN(C5CC5)CC4)C3)nc3c(F)c(-c4c(C)ccc5[nH]ncc45)c(Cl)cc23)C[C@H]1C [Compound 200, 1-((2R,5S)-4-(6-chloro-2-(7-cyclopropyl-2,7-diazaspiro[3.5]nonan-2-yl)-8-fluoro-7-(5-methyl-1H-indazol-4-yl)quinazolin-4-yl)-2,5-dimethyl-piperazin-1-yl) prop-2-en-1-one]",++ (++ indicates binding activity from 50 to 90%)
11,"C=CC(=O)N1C[C@H](C)N(c2nc(OCCN3CCC(F)(F)C3)nc3c(F)c(-c4c(C)ccc5[nH]ncc45)c(Cl)cc23)C[C@H]1C [Compound 209, 1-((2R,5S)-4-(6-chloro-2-(2-(3,3-difluoropyrrolidin-1-yl)ethoxy)-8-fluoro-7-(5-methyl-1H-indazol-4-yl)quinazolin-4-yl)-2,5-dimethyl-piperazin-1-yl) prop-2-en-1-one]",+++ (+++ indicates binding activity greater than 90%)
